This experiment deals with Glycogen synthase kinase-3 beta (Homo sapiens, UniProt P49841). It is filed as cell-based, Sf9.
Glycogen synthase kinase-3 beta, sequence (P49841 whole entry): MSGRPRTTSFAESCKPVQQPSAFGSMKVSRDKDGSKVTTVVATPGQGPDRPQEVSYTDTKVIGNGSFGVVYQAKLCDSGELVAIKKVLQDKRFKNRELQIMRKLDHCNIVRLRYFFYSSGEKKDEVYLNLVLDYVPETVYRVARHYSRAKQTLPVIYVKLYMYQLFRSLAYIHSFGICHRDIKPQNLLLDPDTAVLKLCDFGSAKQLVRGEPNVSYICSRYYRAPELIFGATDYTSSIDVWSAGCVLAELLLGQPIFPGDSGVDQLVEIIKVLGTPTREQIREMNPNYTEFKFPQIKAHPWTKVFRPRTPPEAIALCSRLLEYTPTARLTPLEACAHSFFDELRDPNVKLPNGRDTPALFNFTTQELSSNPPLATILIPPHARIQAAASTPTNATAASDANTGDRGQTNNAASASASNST
Description: Inhibition of GSK3beta (unknown origin) expressed in Sf9 cells using GS1 as substrate and [gamma32]ATP after 30 min by scinitllation counting
Take `O=C1NC(=O)C2=C1c1cn(c3ccccc13)CCOCCOCCOCCn1cc2c2ccccc21` [INDOLYLYLMALEIMIDE 2]: the IC50 was 21.9 nM.

`O=C1NC(=O)C(c2cnc3cccnn23)=C1c1cn2c3c(cccc13)CN(C(=O)N1CCCCC1)CC2` [BISARYLMALEIMIDE 1] had a half-maximal inhibitory concentration (IC50) of 0.708 nM.

`COc1ccc(Nc2nccc(-c3cnn4ncccc34)n2)cc1OC` [PYRAZOLOPYRIDAZINE 2] gave a Ki of 12 nM.

`CC(=O)O/N=C1/C(=C2/C(=O)Nc3cc(Cl)c(Cl)cc32)Nc2ccccc21` [INDIRUBIN 1] gave an IC50 of 3.98 nM.

For the molecule `CC(=O)NC1=NC(=O)/C(=C2\CCNC(=O)c3c2cc(Br)n3C(C)=O)N1` [HYMENIALDISINE 2], inhibition was half-maximal at 129 nM (IC50).

Molecule `CN(C)CCNC(=O)c1ccc(/C=N/Nc2ncnc3c2cnn3-c2cccc3[nH]cnc23)cc1` [PYRAZOLOPYRIMIDINE 1] gave an IC50 of 1.58 nM. This IC50 lies about 82-fold lower than the previous one.

Consider `CN1CCN(c2cnc(NCCNc3ccc([N+](=O)[O-])c(N)n3)nc2-c2ccc(Cl)cc2Cl)C(=O)C1`, for which inhibition was half-maximal at 3.98 nM (IC50).

The molecule `O=C1Nc2ccc(Br)cc2/C1=C1/Nc2ccccc2/C1=N\O` [INDIRUBIN 2] showed an IC50 of 5.01 nM. This IC50 and that of the molecule before are within 1.5-fold of each other.

Molecule `O=C1NC(=O)C(c2cncc3ccoc23)=C1c1cn2c3c(cccc13)CN(C(=O)N1CCOCC1)CC2` [BISARYLMALEIMIDE 2] had an IC50 of 0.794 nM.

Usually IC50 stands for the concentration at which inhibition is half-maximal. Low values mean greater potency, high ones weaker potency. One may read the Ki as the dissociation constant of the complex between target and ligand, obtained from inhibition or displacement. A lower Ki goes with a stronger hold on the target.
